Reference: US20130210846A1, “USE OF NOVEL PAN-CDK INHIBITORS FOR TREATING TUMORS” (BAYER INTELLECTUAL PROPERTY GMBH, priority 2010, published 2013)

Tests used:
CDK1/CycB = molecular target: T1, CDK1/CycB (Homo sapiens, UniProt P06493); experiment: CDK1/CycB kinase assay (Assay 1); assay type: biochemical; settings: 0.5 μM ATP, histon IIIS, 10 min 22° C.; read-out: CDK1/CycB (Assay 1) Concentration for half-maximal inhibition of the enzyme activity, IC50
T1 construct: purchased ProQinase GmbH, Freiburg, Germany; host or cells: baculovirus-infected insect cells (Sf9)
Method: Recombinant CDK1 and CycB-GST fusion proteins, purified from baculovirus-infected insect cells (Sf9), were purchased from ProQinase GmbH, Freiburg, Germany. The histon HIS used as kinase substrate is commercially available from Sigma.
CDK1/CycB (200 ng/measuring point) was incubated for 10 min at 22° C. in the presence of various concentrations of test substances (0 μM, and within the range 0.01-100 μM) in assay buffer [50 mM Tris/HCl pH8.0, 10 mM MgCl2, 0.1 mM Na ortho-vanadate, 1.0 mM dithiothreitol, 0.5 μM adenosine triphosphate (ATP), 10 μg/measuring point histon IIIS, 0.2 μCi/measuring point ^33P-gamma ATP, 0.05% NP40, 1.25% dimethyl sulfoxide]. The reaction was stopped by adding EDTA solution (250 mM, pH 8.0, 15 μl/measuring point).
(§1) From each reaction mixture, 15 μl were applied to P30 filter strips (from Wallac), and unincorporated ^33P-ATP was removed by washing the filter strips three times, for 10 min each time, in 0.5% phosphoric acid. After drying the filter strips for 1 hour at 70° C., the filter strips were covered with scintillator strips (MeltiLex™ A, from Wallac) and stoved for 1 hour at 90° C. The amount of incorporated ^33P (substrate phosphorylation) was determined by scintillation measurement in a gamma-radiation measuring instrument (Wallac). The measured data were standardized to 0% inhibition (enzyme reaction without inhibitor) and 100% inhibition (all assay components except enzyme). The IC50 values were determined by means of a 4-parameter fit using the company's own software.

CDK2/CycE = molecular target: T2, CDK2/CycE (Homo sapiens, UniProt P24941); experiment: CDK2/CycE kinase assay (Assay 2); assay type: biochemical; settings: 0.5 μM ATP, histon IIIS, 10 min 22° C.; read-out: CDK2/CycE (Assay 2) Concentration for half-maximal inhibition of the enzyme activity, IC50
T2 construct: purchased ProQinase GmbH, Freiburg, Germany; host or cells: baculovirus-infected insect cells (Sf9)
Method: Recombinant CDK2 and CycE-GST fusion proteins, purified from baculovirus-infected insect cells (Sf9), were purchased from ProQinase GmbH, Freiburg, Germany. Histon HIS, used as kinase substrate, was purchased from Sigma.
The reaction was stopped by adding EDTA solution (250 mM, pH 8.0, 15 μl/measuring point).
as §1, with “μl was” for “μl were”, “(Wallac). […]” for “(Wallac). The measured data were standardized to 0% inhibition (enzyme reaction without inhibitor) and 100% inhibition (all assay components except enzyme).”

[1] = molecular target: T3, VEGF receptor tyrosine kinase-2 (VEGF-R2) (Homo sapiens, UniProt P35968); experiment: VEGF receptor-2 kinase assay (Assay 3); assay type: biochemical; settings: 8 μM ATP, poly-(Glu4Tyr), 10 min 22° C.; read-out: VEGF-R2 (Assay 3) Concentration for half-maximal inhibition of the enzyme activity, IC50
T3 construct: GST; made in house; host or cells: baculovirus-infected insect cells (Sf9)
Method: Recombinant VEGF receptor tyrosine kinase-2 was purified as GST fusion protein from baculovirus-infected insect cells (Sf9). Poly-(Glu4Tyr), used as kinase substrate, was purchased from Sigma.
VEGF receptor tyrosine kinase (90 ng/measuring point) was incubated for 10 min at 22° C. in the presence of various concentrations of test substances (0 μM, and within the range 0.001-30 μM) in 30 μl assay buffer [40 mM Tris/HCl pH5.5, 10 mM MgCl2, 1 mM MnCl2, 3 μM Na ortho-vanadate, 1.0 mM dithiothreitol, 8 μM adenosine triphosphate (ATP), 0.96 μg/measuring point poly-(Glu4Tyr), 0.2 μCi/measuring point ^33P-gamma ATP, 1.4% dimethyl sulfoxide]. The reaction was stopped by adding EDTA solution (250 mM, pH 8.0, 15 μl/measuring point).
as §1, with “μl was” for “μl were”

HeLa-MaTu-ADR = experiment: Proliferation assay HeLa-MaTu-ADR; assay type: cell-based, human; settings: cervix carcinoma, 4 days, crystal violet
Method: (§2) Cultivated human tumor cells (originally obtained from ATCC, HeLa-MaTu and HeLa-MaTu-ADR, originally obtained from Epo GmbH, Berlin, Germany) were plated at a density of 1000 to 5000 cells/measuring point, depending on the growth rate of the cell line, in a 96-well multititer plate in 200 μl of growth medium (DMEM/HAMS F12, 2 mM L-glutamine, 10% fetal calf serum). After 24 hours the cells of one plate (zero-point plate) were stained with crystal violet (see below), whereas the medium of the other plates was replaced with fresh culture medium (200 μl), to which the test substances had been added at various concentrations (0 μM, and in the range 0.01-30 μM; the final concentration of the solvent dimethyl sulfoxide was 0.5%). The cells were incubated for 4 days in the presence of the test substances. Cellular proliferation was determined by staining the cells with crystal violet: the cells were fixed by adding 20 μl/measuring point of an 11% glutaraldehyde solution for 15 min at room temperature. After washing the fixed cells with water three times, the plates were dried at room temperature. The cells were stained by adding 100 μl/measuring point of a 0.1% crystal violet solution (pH adjusted to pH3 by adding acetic acid). After washing the stained cells with water three times, the plates were dried at room temperature. The dye was dissolved by adding 100 μl/measuring point of a 10% acetic acid solution. The extinction was determined photometrically at a wavelength of 595 nm. The percentage change in cell growth was calculated by standardization of the measured values to the extinction values of the zero-point plate (=0%) and the extinction of the untreated (0 μM) cells (=100%). The measured data were standardized to 0% inhibition (cell proliferation without inhibitor) and 100% inhibition (zero-point plate). The IC50 values were determined by means of a 4-parameter fit using the company's own software.
(§3) The substances were examined in the following cell lines which, in an exemplary manner, represent the stated indications: […]

NCI-H460 = experiment: Proliferation assay NCI-H460; assay type: cell-based, human; settings: NCI-H460, non-small-cell bronchial carcinoma; 4 days, crystal violet
Method: as §2, §3

Caco-2 = experiment: Proliferation assay Caco-2; assay type: cell-based, human; settings: Caco-2, colon/rectum carcinoma; 4 days, crystal violet
Method: as §2, §3

MCF7 = experiment: Proliferation assay MCF7; assay type: cell-based, human; settings: MCF7, estrogen receptor-positive mamma carcinoma; 4 days, crystal violet
Method: as §2, §3

DU145 = experiment: Proliferation assay DU145; assay type: cell-based, human; settings: DU145, prostate carcinoma; 4 days, crystal violet
Method: as §2, §3

HeLa-MaTu = experiment: Proliferation assay HeLa-MaTu; assay type: cell-based, human; settings: cervix carcinoma, 4 days, crystal violet
Method: as §2, §3

T1 sequence (P06493 whole entry): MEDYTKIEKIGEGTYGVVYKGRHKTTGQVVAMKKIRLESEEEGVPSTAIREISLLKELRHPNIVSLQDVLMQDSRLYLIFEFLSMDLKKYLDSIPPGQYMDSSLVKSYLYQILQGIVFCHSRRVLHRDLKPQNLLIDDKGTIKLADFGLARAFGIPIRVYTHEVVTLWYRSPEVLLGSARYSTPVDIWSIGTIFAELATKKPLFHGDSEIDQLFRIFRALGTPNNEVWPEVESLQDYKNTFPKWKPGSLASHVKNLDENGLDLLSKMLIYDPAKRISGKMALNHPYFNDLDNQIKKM
T1 sequence (P14635 whole entry partner): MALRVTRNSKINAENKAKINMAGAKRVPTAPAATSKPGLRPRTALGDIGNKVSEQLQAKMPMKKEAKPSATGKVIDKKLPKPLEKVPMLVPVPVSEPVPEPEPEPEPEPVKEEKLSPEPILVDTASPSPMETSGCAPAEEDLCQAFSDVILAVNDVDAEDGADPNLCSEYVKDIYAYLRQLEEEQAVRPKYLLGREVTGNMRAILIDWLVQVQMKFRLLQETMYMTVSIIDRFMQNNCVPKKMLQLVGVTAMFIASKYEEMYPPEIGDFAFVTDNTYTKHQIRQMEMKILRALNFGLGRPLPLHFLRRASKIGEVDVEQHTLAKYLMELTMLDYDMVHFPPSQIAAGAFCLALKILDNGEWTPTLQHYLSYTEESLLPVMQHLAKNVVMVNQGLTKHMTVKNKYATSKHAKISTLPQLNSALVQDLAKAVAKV
T3 sequence (P35968 20-1356, species assumed): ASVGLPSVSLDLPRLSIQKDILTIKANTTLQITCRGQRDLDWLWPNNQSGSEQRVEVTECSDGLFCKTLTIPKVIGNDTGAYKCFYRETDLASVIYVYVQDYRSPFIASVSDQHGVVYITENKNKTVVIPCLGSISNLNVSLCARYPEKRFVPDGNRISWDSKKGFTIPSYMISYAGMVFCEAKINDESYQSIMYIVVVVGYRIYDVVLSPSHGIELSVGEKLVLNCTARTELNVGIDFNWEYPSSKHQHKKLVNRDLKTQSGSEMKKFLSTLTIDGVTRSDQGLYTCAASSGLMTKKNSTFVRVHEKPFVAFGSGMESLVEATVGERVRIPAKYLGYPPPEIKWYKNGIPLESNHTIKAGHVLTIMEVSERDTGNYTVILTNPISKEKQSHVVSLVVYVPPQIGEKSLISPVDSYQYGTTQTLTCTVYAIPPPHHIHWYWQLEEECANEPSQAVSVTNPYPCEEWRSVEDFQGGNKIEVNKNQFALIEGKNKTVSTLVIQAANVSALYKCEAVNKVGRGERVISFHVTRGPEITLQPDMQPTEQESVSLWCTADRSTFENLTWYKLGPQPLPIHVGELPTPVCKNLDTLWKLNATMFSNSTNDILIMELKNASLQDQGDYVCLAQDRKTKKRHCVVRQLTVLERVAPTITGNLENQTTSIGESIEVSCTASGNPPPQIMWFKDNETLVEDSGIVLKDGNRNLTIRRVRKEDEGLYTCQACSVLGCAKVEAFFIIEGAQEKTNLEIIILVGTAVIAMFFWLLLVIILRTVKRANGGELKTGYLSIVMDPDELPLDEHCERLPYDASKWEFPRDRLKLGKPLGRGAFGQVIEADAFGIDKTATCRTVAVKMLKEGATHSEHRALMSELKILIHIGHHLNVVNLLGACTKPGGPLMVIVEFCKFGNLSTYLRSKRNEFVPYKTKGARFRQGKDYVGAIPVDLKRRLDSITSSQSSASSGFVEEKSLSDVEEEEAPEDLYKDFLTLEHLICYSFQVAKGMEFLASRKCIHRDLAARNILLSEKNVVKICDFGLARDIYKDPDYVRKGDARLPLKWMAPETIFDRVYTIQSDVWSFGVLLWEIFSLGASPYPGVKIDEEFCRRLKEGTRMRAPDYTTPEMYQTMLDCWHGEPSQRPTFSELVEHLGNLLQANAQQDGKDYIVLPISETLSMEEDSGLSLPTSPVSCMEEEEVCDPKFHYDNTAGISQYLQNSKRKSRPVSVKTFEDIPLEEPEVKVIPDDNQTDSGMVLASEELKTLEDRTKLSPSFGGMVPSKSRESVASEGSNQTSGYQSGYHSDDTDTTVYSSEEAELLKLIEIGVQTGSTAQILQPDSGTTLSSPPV

| SMILES | IC50 (CDK1/CycB) [nM] | IC50 (CDK2/CycE) [nM] | IC50 [1] [nM] | IC50 (HeLa-MaTu-ADR) [nM] | IC50 (NCI-H460) [nM] | IC50 (Caco-2) [nM] | IC50 (MCF7) [nM] | IC50 (DU145) [nM] | IC50 (HeLa-MaTu) [nM] | IC50 (HeLa-MaTu; Homo sapiens, 96 h) [nM] |
| --- | --- | --- | --- | --- | --- | --- | --- | --- | --- | --- |
| C[C@@H](O)[C@@H](C)Oc1nc(Nc2ccc(S(C)(=N)=O)cc2)ncc1C(F)(F)F (mixture of isomers) [Example 2-SI-1, (RS)—S-(4-{[4-{[(1R,2R)-2-Hydroxy-1-methylpropyl]oxy}-5-(trifluoromethyl)pyrimidin-2-yl]-amino}phenyl)-S-methylsulfoximide] |  |  |  | 32 | 68 | 80 | 39 | 28 |  |  |
| CCS(=N)(=O)c1ccc(Nc2ncc(C(F)(F)F)c(N[C@H](C)C(C)(C)O)n2)cc1 (single isomer, unassigned) [Example 7-SI-1] | 24 | 4 | 143 |  |  |  |  |  |  |  |
| C[C@@H](O)[C@@H](C)Nc1nc(Nc2ccc(S(C)(=N)=O)cc2)ncc1C(F)(F)F (mixture of isomers) [Example 8-SI-2, (RS)—S-(4-{[4-{[(1R,2R)-2-Hydroxy-1-methylpropyl]amino}-5-(trifluoromethyl)pyrimidin-2-yl]-amino}phenyl)-S-methylsulfoximide] |  |  |  | 24 | 28 | 41 | 23 | 30 | 10 |  |
| CCS(=N)(=O)c1ccc(Nc2ncc(C(F)(F)F)c(N[C@H](C)[C@@H](C)O)n2)cc1 (mixture of isomers) [Example 6-SI-1, (RS)—S-Ethyl-S-(4-{[4-{[(1R,2R)-2-hydroxy-1-methylpropyl]amino}-5-(trifluoromethyl)-pyrimidin-2-yl]amino}phenyl)sulfoximide] | 10 | 5 | 73 | 35 | 50 | 120 | 59 | 100 |  |  |
| CCS(=N)(=O)c1ccc(Nc2ncc(C(F)(F)F)c(N[C@H](C)C(C)(C)O)n2)cc1 (mixture of isomers) [Example 7-SI-2, (RS)—S-Ethyl-S-(4-{[4-{[(R)-2-hydroxy-1,2-dimethylpropyl]amino}-5-(trifluoromethyl)pyrimidin-2-yl]amino}phenyl)sulfoximide] |  |  |  | 36 | 51 | 67 | 39 | 42 | 10 |  |
| C[C@@H](O)[C@@H](C)Oc1nc(Nc2ccc(S(=N)(=O)C3CC3)cc2)ncc1C(F)(F)F (mixture of isomers) [Example 1-SI-1, (RS)—S-Cyclopropyl-S-(4-{[4-{[(1R,2R)-2-hydroxy-1-methylpropyl]oxy}-5-(trifluoromethyl)-pyrimidin-2-yl]amino}phenyl)sulfoximide] |  |  | 114 | 35 | 48 | 80 | 48 | 45 |  | 13 |
| C[C@@H](O)[C@@H](C)Nc1nc(Nc2ccc(S(C)(=N)=O)cc2)ncc1C(F)(F)F (mixture of isomers) [Example 8-SI-1, (RS)—S-(4-{[4-{[(1R,2R)-2-Hydroxy-1-methylpropyl]amino}-5-(trifluoromethyl)pyrimidin-2-yl]-amino}phenyl)-S-methylsulfoximide] |  |  |  |  |  |  |  | 64 |  |  |

Now from value to compound:

| IC50 (CDK1/CycB) [nM] | IC50 (CDK2/CycE) [nM] | IC50 [1] [nM] | IC50 (HeLa-MaTu-ADR) [nM] | IC50 (NCI-H460) [nM] | IC50 (Caco-2) [nM] | IC50 (MCF7) [nM] | IC50 (DU145) [nM] | IC50 (HeLa-MaTu) [nM] | IC50 (HeLa-MaTu; Homo sapiens, 96 h) [nM] | SMILES |
| --- | --- | --- | --- | --- | --- | --- | --- | --- | --- | --- |
| 17 | 3 | 154 |  |  |  |  |  |  |  | C[C@@H](Nc1nc(Nc2ccc(S(C)(=N)=O)cc2)ncc1C(F)(F)F)C(C)(C)O (single isomer, unassigned) [Example 9-SI-2] |
|  |  |  | 112 | 119 | 196 | 106 | 152 | 27 |  | CCS(=N)(=O)c1ccc(Nc2ncc(C(F)(F)F)c(N[C@H](C)C(C)(C)O)n2)cc1 (mixture of isomers) [Example 7-SI-1, (RS)—S-Ethyl-S-(4-{[4-{[(R)-2-hydroxy-1,2-dimethylpropyl]amino}-5-(trifluoromethyl)pyrimidin-2-yl]amino}phenyl)sulfoximide] |
|  |  |  | 19 | 34 | 61 | 89 | 34 |  |  | C[C@@H](Nc1nc(Nc2ccc(S(C)(=N)=O)cc2)ncc1C(F)(F)F)C(C)(C)O (mixture of isomers) [Example 9-SI-1, (RS)—S-(4-{[4-{[(1R)-2-Hydroxy-1,2-dimethylpropyl]amino}-5-(trifluoromethyl)pyrimidin-2-yl]amino}phenyl)-S-methylsulfoximide] |
|  |  |  | 114 | 112 | 200 | 271 | 185 | 21 |  | C[C@@H](Nc1nc(Nc2ccc(S(C)(=N)=O)cc2)ncc1C(F)(F)F)C(C)(C)O (mixture of isomers) [Example 9-SI-2, (RS)—S-(4-{[4-{[(1R)-2-Hydroxy-1,2-dimethylpropyl]amino}-5-(trifluoromethyl)pyrimidin-2-yl]amino}phenyl)-S-methylsulfoximide] |
